Target: SARS-CoV-2 M^pro (main protease, 3CL^pro, NSP5) (Severe acute respiratory syndrome coronavirus 2, UniProt P0DTD1)
Experiment: fluorogenic substrate cleavage, Morrison fit
Type: biochemical
Settings: HEPES 25 mM pH 7.0; fluorogenic substrate SAE0180

O=C(NCCN1CCCC1)N1c2ccccc2Sc2ccccc21 [compound 3, 4080]
Ki: 80 µM

Reference: publication doi:10.1101/2023.09.11.557219v1 (biorxiv, 2023)
